Active and inactive are the calls of the source. The calls are words filed in the database; no cut-off is given here.
Key:
HCT-116 [1] = test: Antimetastatic activity against human HCT-116 cells assessed as inhibition of cell migration measured after 36 hrs by transwell assay; assay type: functional, cell-based; details: dose 2.5-15 µM
MGC-803 [2] = test: Induction of apoptosis in human MGC-803 cells at 2.5 to 20 uM measured after 48 hrs by Annexin V-FITC/PI staining based flow cytometry; assay type: functional, cell-based; details: dose 2.5-20 µM
MGC-803 [3] = test: Downregulation of STAT3 expression in human MGC-803 cells at 10 uM measured after 3 hrs by Hoechst/fluorochrome-conjugated antibody staining based confocal laser microscopy; assay type: functional, cell-based
HCT-116 [4] = test: Induction of apoptosis in human HCT-116 cells assessed as downregulation of cytochrome C expression at 2.5 to 10 uM measured after 48 hrs by western blot assay; assay type: functional, cell-based; details: dose 2.5-10 µM
HCT-116 [5] = test: Antiproliferative activity against human HCT-116 cells assessed as decrease in cell population at S-phase at 1.25 to 10 uM measured after 24 hrs by EdU incorporation based fluorescence microscopic analysis; assay type: functional; details: dose 1.25-10 µM
[6] = Toxicity in po dosed Kunming mouse; assay type: organism-based; details: in vivo
HCT-116 [7] = test: Induction of apoptosis in human HCT-116 cells assessed as necrotic cells at 5 uM measured after 48 hrs by Annexin V-FITC/PI staining based flow cytometry (reference value: 1.5%); assay type: functional
HCT-116 [8] = test: Induction of cell cycle arrest in human HCT116 cells assessed as accumulation of cells at G0/G1 phase at 20 uM measured after 48 hrs by propidium iodide staining based flow cytometry analysis (reference value: 70.45%); assay type: functional
HCT-116 [9] = test: Induction of apoptosis in human HCT-116 cells assessed as late apoptotic cells at 20 uM measured after 48 hrs by Annexin V-FITC/PI staining based flow cytometry (reference value: 1.42%); assay type: functional
HCT-116 [10] = test: Downregulation of STAT3 expression in human HCT-116 cells at 10 uM measured after 3 hrs by Hoechst/fluorochrome-conjugated antibody staining based confocal laser microscopy; assay type: functional, cell-based
MGC-803 [11] = test: Antimetastatic activity against human MGC-803 cells assessed as inhibition of cell invasion measured after 24 hrs by transwell assay; assay type: functional, cell-based; details: dose 2.5-15 µM
MGC-803 [12] = test: Cytotoxicity against human MGC-803 cells assessed as reduction in cell viability at <20 uM measured after 24 hrs by CCK8 assay; assay type: cell-based; details: mgc-803, 24 h
HCT-116 [13] = test: Induction of apoptosis in human HCT-116 cells assessed as early apoptotic cells at 2.5 uM measured after 48 hrs by Annexin V-FITC/PI staining based flow cytometry assay (reference value: 2.14%); assay type: functional
HCT-116 [14] = test: Induction of apoptosis in human HCT-116 cells assessed as early apoptotic cells at 5 uM measured after 48 hrs by Annexin V-FITC/PI staining based flow cytometry (reference value: 2.14%); assay type: functional
[15] = Ratio of AUC (0 to t) to observed AUC (0 to infinity) in Sprague-Dawley rat at 100 mg/kg, ig measured for 24 hrs by LC-MS analysis; assay type: ADME, organism-based; details: in vivo, po
MCF7 = test: Antiproliferative activity against human MCF7 cells assessed as inhibition of cell proliferation measured after 72 hrs by MTT assay; assay type: functional, cell-based; details: MCF7, 72 h
HCT-116 [16] = test: Induction of apoptosis in human HCT-116 cells assessed as late apoptotic cells at 2.5 uM measured after 48 hrs by Annexin V-FITC/PI staining based flow cytometry assay (reference value: 1.42%); assay type: functional
HCT-116 [17] = test: Induction of apoptosis in human HCT-116 cells assessed as early apoptotic cells at 20 uM measured after 48 hrs by Annexin V-FITC/PI staining based flow cytometry (reference value: 2.14%); assay type: functional
HCT-116 [18] = test: Antiproliferative activity against human HCT-116 cells assessed as inhibition of cell proliferation measured after 72 hrs by MTT assay; assay type: functional, cell-based; details: HCT-116, 72 h
[19] = Cytotoxicity against LPS-stimulated mouse RAW264.7 cells assessed as cell viability at 5 to 20 microM measured after 24 hrs; assay type: cell-based; details: LPS-stimulated RAW264.7 cells, dose 5-20 µM, read-out: Activity
HCT-116 [20] = test: Induction of apoptosis in human HCT-116 cells assessed as chromatin pyknosis at 2.5 to 15 uM measured after 48 hrs by Giemsa staining method; assay type: functional, cell-based; details: dose 2.5-15 µM
[21] = Toxicity in Kunming mouse assessed as hair condition at 1000 mg/kg, ig measured for 14 days; assay type: organism-based; details: in vivo, po, 336 h, time 14 day
HCT-116 [22] = test: Downregulation of STAT3 protein expression in human HCT-116 cells at 2.5 to 10 uM measured after 48 hrs by western blot assay; assay type: functional, cell-based; details: dose 2.5-10 µM
HepG2 = test: Antiproliferative activity against human HepG2 cells assessed as inhibition of cell proliferation measured after 72 hrs by MTT assay; assay type: functional, cell-based; details: HepG2, 72 h
A549 = test: Antiproliferative activity against human A549 cells assessed as inhibition of cell proliferation measured after 72 hrs by MTT assay; assay type: functional, cell-based; details: A549, 72 h
[23] = Toxicity in Kunming mouse assessed as feeding frequency and amount at 1000 mg/kg, ig measured for 14 days; assay type: organism-based; details: in vivo, po, 336 h, time 14 day
HCT-116 [24] = test: Induction of apoptosis in human HCT-116 cells assessed as necrotic cells at 10 uM measured after 48 hrs by Annexin V-FITC/PI staining based flow cytometry (reference value: 1.5%); assay type: functional
HCT-116 [25] = test: Induction of apoptosis in human HCT-116 cells assessed as late apoptotic cells at 10 uM measured after 48 hrs by Annexin V-FITC/PI staining based flow cytometry (reference value: 1.42%); assay type: functional
[26] = Observed apparent oral clearance in Sprague-Dawley rat at 100 mg/kg measured for 24 hrs by LC-MS analysis; assay type: ADME, organism-based; details: in vivo
[27] = biological target: Signal transducer and activator of transcription 3 (Homo sapiens) (UniProt P40763); test: Inhibition of STAT3 in human MGC-803 cells assessed as decrease in Bcl-2 expression at 4 to 16 uM measured after 48 hrs by western blot assay; assay type: cell-based; details: dose 4-16 µM
Signal transducer and activator of transcription 3 (Homo sapiens), sequence (P40763 whole entry): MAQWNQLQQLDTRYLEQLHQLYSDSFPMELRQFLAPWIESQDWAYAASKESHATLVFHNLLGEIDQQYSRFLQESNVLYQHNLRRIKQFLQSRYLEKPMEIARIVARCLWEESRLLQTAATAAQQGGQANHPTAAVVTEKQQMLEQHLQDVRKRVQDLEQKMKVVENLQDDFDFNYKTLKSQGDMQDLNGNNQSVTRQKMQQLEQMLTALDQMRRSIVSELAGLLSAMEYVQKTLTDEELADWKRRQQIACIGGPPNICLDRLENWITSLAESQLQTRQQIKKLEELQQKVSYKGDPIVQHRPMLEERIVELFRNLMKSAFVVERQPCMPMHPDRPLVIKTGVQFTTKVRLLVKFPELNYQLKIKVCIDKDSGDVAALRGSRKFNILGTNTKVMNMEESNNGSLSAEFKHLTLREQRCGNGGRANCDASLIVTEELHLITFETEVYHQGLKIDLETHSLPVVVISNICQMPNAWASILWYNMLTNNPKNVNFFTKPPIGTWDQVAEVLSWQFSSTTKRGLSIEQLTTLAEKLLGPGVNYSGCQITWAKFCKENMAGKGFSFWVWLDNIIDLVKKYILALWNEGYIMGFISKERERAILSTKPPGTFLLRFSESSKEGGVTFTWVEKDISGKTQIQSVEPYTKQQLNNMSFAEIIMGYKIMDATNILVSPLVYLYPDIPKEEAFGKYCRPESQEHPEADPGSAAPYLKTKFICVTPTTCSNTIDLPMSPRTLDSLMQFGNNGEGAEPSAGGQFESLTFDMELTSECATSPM

HCT-116 [28] = test: Cytotoxicity against human HCT-116 cells assessed as reduction in cell viability at <=20 uM measured after 48 hrs by CCK8 assay; assay type: cell-based; details: hct-116, 48 h
[29] = Toxicity in Kunming mouse assessed as animal survival at 1000 mg/kg, ig measured for 14 days; assay type: organism-based; details: in vivo, po, 336 h, time 14 day
HCT-116 [30] = test: Induction of apoptosis in human HCT-116 cells assessed as viable cells at 2.5 uM measured after 48 hrs by Annexin V-FITC/PI staining based flow cytometry assay (reference value: 94.9%); assay type: functional; details: read-out: Activity
[31] = Tmax in Sprague-Dawley rat at 100 mg/kg, ig measured for 24 hrs by LC-MS analysis; assay type: ADME, organism-based; details: in vivo, po
HCT-116 [32] = test: Induction of apoptosis in human HCT-116 cells assessed as necrotic cells at 2.5 uM measured after 48 hrs by Annexin V-FITC/PI staining based Flowcytometry assay (reference value: 1.5%); assay type: functional

Cc1c(Cl)cccc1Nc1ccccc1C(=O)NCCc1c[nH]c2ccccc12
Activity (HCT-116 [1]): Dose-Dependent Effect
Activity (MGC-803 [2]): inactive
inhibition (MGC-803 [3]): Active
Activity (HCT-116 [4]): Active
Activity (HCT-116 [5]): Active
LD50 [6]: > 1000 mg/kg
Activity (HCT-116 [7]): 2.81%
Activity (HCT-116 [8]): 84.74%
Activity (HCT-116 [9]): 8.95%
inhibition (HCT-116 [10]): Active
Activity (MGC-803 [11]): Dose-Dependent Effect
Activity (MGC-803 [12]): Non-Toxic
Activity (HCT-116 [13]): 3.48%
Activity (HCT-116 [14]): 5.44%
Ratio AUC [15]: 0.87
IC50 (MCF7): 12.8 µM
Activity (HCT-116 [16]): 3.12%
Activity (HCT-116 [17]): 42.5%
IC50 (HCT-116 [18]): 8.42 µM
viability at 24 h [19]: > 80%
Activity (HCT-116 [20]): Active
Activity [21]: Non-Toxic
inhibition (HCT-116 [22]): Active
IC50 (HepG2): 7.37 µM
IC50 (A549): 18.6 µM
Activity [23]: Non-Toxic
Activity (HCT-116 [24]): 2.42%
Activity (HCT-116 [25]): 6.12%
CL/F [26]: 51.75 (mg/kg)/(microg/ml)/hr
inhibition [27]: Active
Activity (HCT-116 [28]): Non-Toxic
Activity [29]: Non-Toxic
viability at 2.5 µM (HCT-116 [30]): 91.3%
Tmax [31]: 1 h
Activity (HCT-116 [32]): 2.07%

Source: ChEMBL document CHEMBL4818998, “Melatonin derivatives combat with inflammation-related cancer by targeting the Main Culprit STAT3” (Eur J Med Chem, 2021)
